Laboratory results taken from patent publication US20040204474A1, “Carvedilol-lipophilic solutions” (priority 2000, published 2004).
Where two headings read alike, the source gives them in different places.

Legend:
[1] = gastrointestinal resorption after peroral administration; type: in vivo; conditions: rapid release formulations, e.g. the commercial formulation
[2] = solubility of carvedilol in aqueous media; type: physicochemical; conditions: about pH 1-2
[3] = solubility of carvedilol in adjuvants and solvents with lipophilic character; type: physicochemical; conditions: for solubility: oil or lipid

With COc1ccccc1OCCNCC(O)COc1cccc2[nH]c3ccccc3c12 (centres unmarked) [carvedilol, 1-(4-carbazolyloxy)-3-[2-(2-methoxyphenoxy)ethyl-amino]-2-propanol] the resorption quota [1] was “up to 80%”, the “solubility in aqueous media, strongly acidic region” value [2] was “very low solubility” and the “solubility in pronounced lipophilic solvents (paraffin, petroleum ether)” value [3] was “very low”. For the same compound, the “solubility in benzyl alcohol” value ([3]; at 37° C.) was > 100 mg of carvedilol per ml, the solubility ([3]; capric acid, 37 °C, at 37° C., read-out: solubility in capric acid) was greater than 100 mg/mL and the solubility ([3]; in many cases, read-out: solubility in glycerol oleyloleate, medium chain triglycerides and natural oils) was less than 10 mg/mL. For the same compound, the solubility ([3]; all named solvents, read-out: solubility in glycerol oleyloleate, medium chain triglycerides and natural oils (cod liver, soya bean, sesame, peanut, olive, cottonseed oil)) was less than 50 mg/mL and the solubility ([3]; oleic acid, 37 °C, at 37° C., read-out: solubility in oleic acid) was greater than 100 mg/mL.
